Results from patent US20160039802A1, “3-PYRIMIDIN-4-YL-OXAZOLIDIN-2-ONES AS INHIBITORS OF MUTANT IDH” (NOVARTIS AG, priority 2013, published 2016).

Assays:
IDH1 (R132H) mutant = biological target: T1, IDH1 (R132H) mutant (Homo sapiens, UniProt O75874, R132H); assay: Fluorescence biochemical assay (NADPH oxidation); conditions: mIDH R132H 10 nM, 10 μM NADPH, 100 μM α-KG; range where run multiple times
T1 construct: His6 with PreScission site (N, cleaved yes); made in house; host or cells: E. coli Rosetta 2(DE3)
Experimental: The IDH1 (R132H) mutant catalyzes the reduced form of NADP+ (NADPH) and α-ketoglutarate (α-KG) to form nicotinamide adenine dinucleotide phosphate (NADP+) and R(−)-2-hydroxyglutarate (2HG). […] Reactions were monitored using the Perkin-Elmer Envision, Model 2101. […] The final reaction mixture contained 2.5% DMSO and test compounds with concentrations ranging 0.0000008-25 μM. The IDH1 (R132H) enzyme was used at a final concentration of 10 nM. Curve fitting for dose response […] determinations was done in the Helios module of the software package DAVID. The 4-parameter logistic model was used: y=min+((max−min)/1+(x/IC50)^shape)

Mutant IDH1 R132H = biological target: T2, Mutant IDH1 R132H (Homo sapiens, UniProt O75874, R132H); assay: Mutant IDH1 biochemical assay: LC-MS detection of 2-HG; conditions: mIDH R132H […], 5 uM NADPH, 100 uM alpha-KG, 45 minutes incubation; range where run multiple times; further: mIDH R132H 0.25 nM, 5 µM NADPH
T2 construct: His6 with PreScission site (N, cleaved yes); made in house; host or cells: E. coli Rosetta 2(DE3)
Source text: Mutant IDH1 biochemical Sssay: LC-MS Detection of 2-HG.

T1 sequence (O75874 whole entry R132H): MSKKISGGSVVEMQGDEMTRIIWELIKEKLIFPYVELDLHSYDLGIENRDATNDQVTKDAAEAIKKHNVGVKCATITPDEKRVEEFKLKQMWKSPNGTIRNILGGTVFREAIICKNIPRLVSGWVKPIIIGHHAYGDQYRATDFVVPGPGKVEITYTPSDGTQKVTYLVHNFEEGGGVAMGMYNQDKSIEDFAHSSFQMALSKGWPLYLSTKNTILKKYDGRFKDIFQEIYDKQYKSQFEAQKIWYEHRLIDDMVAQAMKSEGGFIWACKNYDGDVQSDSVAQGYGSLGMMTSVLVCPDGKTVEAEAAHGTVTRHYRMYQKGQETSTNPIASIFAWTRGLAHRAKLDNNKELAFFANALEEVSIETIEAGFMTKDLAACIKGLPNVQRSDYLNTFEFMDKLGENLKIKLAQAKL
T2 sequence (O75874 whole entry R132H): as above

Row | Structure (SMILES) | IC50 (IDH1 (R132H) mutant) | IC50 (Mutant IDH1 R132H)
1 | C[C@H](Nc1nccc(N2C(=O)OC[C@]2(C)C2CC2)n1)c1ccc(CN2CCC(O)(C(F)(F)F)CC2)cc1F [Example 35, (S)-4-cyclopropyl-3-(2-(((S)-1-(2-fluoro-4-((4-hydroxy-4-(trifluoromethyl)piperidin-1-yl)methyl)phenyl)ethyl)amino)pyrimidin-4-yl)-4-methyloxazolidin-2-one] | 0.0159 µM | 0.0109 µM
2 | C[C@H](Nc1ncc(F)c(N2C(=O)OCC2(C)C2CC2)n1)c1ccc(CN2CCC(N(C)C)CC2)cc1F (single isomer, unassigned) [Example 58] | 0.971 µM | 2.72 µM
3 | C[C@H](Nc1nc(Cl)cc(N2C(=O)OC[C@@H]2C2CC2)n1)c1cc(F)c(-c2cnn(C)c2)cc1F [Example 18, (S)-3-(6-chloro-2-(((S)-1-(2,5-difluoro-4-(1-methyl-1H-pyrazol-4-yl)phenyl)ethyl)amino)pyrimidin-4-yl)-4-cyclopropyl oxazolidin-2-one] | 0.0238 µM | 0.0158 µM
4 | C[C@H](Nc1ncc(F)c(N2C(=O)OCC2(C)C2CC2)n1)c1ccc(CN2CCC(C)(N)CC2)c(F)c1 (single isomer, unassigned) [Example 59] | 0.183 µM | 0.922 µM
5 | C[C@H](Nc1nccc(N2C(=O)OC[C@]2(C)C2CC2)n1)c1ccc(CN2CCC(N(C)C)CC2)cc1F [Example 33, (S)-4-cyclopropyl-3-(2-(((S)-1-(4-((4-(dimethylamino)piperidin-1-yl)methyl)-2-fluorophenyl)ethyl)amino)pyrimidin-4-yl)-4-methyloxazolidin-2-one] | 0.109 to 0.115 µM | 0.175 µM
6 | CC(Nc1nccc(N2C(=O)OC[C@]2(C)C2CC2)n1)c1nc(-c2ccc(Cl)cc2)no1 (single isomer, unassigned) [Example 50] | 0.0629 µM | 0.0202 to 0.026 µM
7 | C[C@H](Nc1ncc(F)c(N2C(=O)OCC2(C)C2CC2)n1)c1ccc(CN2CCC(C)(N)CC2)cc1F (single isomer, unassigned) [Example 61] | 0.236 µM | 0.696 µM
8 | C[C@H](Nc1nc(Cl)cc(N2C(=O)OC[C@@H]2C2CC2)n1)c1ccc(C(C)(C)F)cc1F [Example 20, (S)-3-(6-chloro-2-(((S)-1-(2-fluoro-4-(2-fluoropropan-2-yl)phenyl)ethyl)amino)pyrimidin-4-yl)-4-cyclopropyloxazolidin-2-one] | 0.218 µM | 0.0839 µM
9 | CC(Nc1nccc(N2C(=O)OC[C@]2(C)C2CC2)n1)c1nc(-c2ccc(Cl)c(OC(F)(F)F)c2)no1 (single isomer, unassigned) [Example 63] | 1.89 to 2.12 µM | 2.26 µM
10 | Cc1cc(N2C(=O)OC[C@@H]2C2CC2)nc(N[C@@H](C)c2nc(-c3ccc(Cl)cc3)no2)n1 [Example 8, (S)-3-(2-(((S)-1-(3-(4-chlorophenyl)-1,2,4-oxadiazol-5-yl)ethyl)amino)-6-methylpyrimidin-4-yl)-4-cyclopropyloxazolidin-2-one] | 0.0713 µM | 0.0471 µM
11 | Cc1cc(N2C(=O)OC[C@@H]2C2CC2)nc(N[C@@H](C)c2cn(-c3ccc(Cl)cc3)nn2)n1 [Example 11, (S)-3-(2-(((S)-1-(1-(4-chlorophenyl)-1H-1,2,3-triazol-4-yl)ethyl)amino)-6-methylpyrimidin-4-yl)-4-cyclopropyloxazolidin-2-one] | 0.0359 µM | 0.0767 µM
12 | Cc1cc(-c2cnc(C(C)Nc3nccc(N4C(=O)OC[C@]4(C)C4CC4)n3)nc2)ccc1F (single isomer, unassigned) [Example 53] | 0.0362 µM | 0.0227 to 0.0354 µM
13 | C[C@H](Nc1nccc(N2C(=O)OCC2(C)C2CC2)n1)c1ccc(F)cc1 (single isomer, unassigned) [Example 45] | 0.235 to 0.253 µM | 0.189 µM
14 | CNC1CCN(Cc2ccc([C@H](C)Nc3nccc(N4C(=O)OC[C@]4(C)C4CC4)n3)cc2F)CC1 [Example 40, (S)-4-cyclopropyl-3-(2-(((S)-1-(3-fluoro-4-((4-(methylamino)piperidin-1-yl)methyl)phenyl)ethyl)amino)pyrimidin-4-yl)-4-methyloxazolidin-2-one] | 0.105 to 0.111 µM | 0.117 µM
15 | C[C@H](Nc1nc(Cl)cc(N2C(=O)OC[C@@H]2C2CC2)n1)c1cn(-c2ccc(F)cc2)cn1 [Example 27, (S)-3-(6-chloro-2-(((S)-1-(1-(4-fluorophenyl)-1H-imidazol-4-yl)ethyl)amino)pyrimidin-4-yl)-4-cyclopropyloxazolidin-2-one] | 0.00727 µM | 0.02 µM
16 | C[C@H](Nc1nccc(N2C(=O)OCC2(C)C2CC2)n1)c1ccc(F)cc1 (single isomer, unassigned) [Example 46] | 0.793 to 1.21 µM | 0.791 µM
17 | C[C@H](Nc1ncc(F)c(N2C(=O)OCC2(C)C2CC2)n1)c1ccc(CN2CCC(C)(N)CC2)cc1F (single isomer, unassigned) [Example 62] | 0.748 µM | 1.62 µM

Row | Structure (SMILES) | IC50 (IDH1 (R132H) mutant) | IC50 (Mutant IDH1 R132H)
18 | C[C@H](Nc1ncc(F)c(N2C(=O)OCC2(C)C2CC2)n1)c1ccc(CN2CCC(N(C)C)CC2)cc1F (single isomer, unassigned) [Example 57] | 0.29 µM | 0.868 µM
19 | CC(Nc1nccc(N2C(=O)OC[C@@]2(C)C2CC2)n1)c1nc(-c2ccc(Cl)c(OC(F)(F)F)c2)no1 (single isomer, unassigned) [Example 65] | > 25 µM | > 5 µM
20 | C[C@H](Nc1nccc(N2C(=O)OC[C@]2(C)C2CC2)n1)c1ccc(CN2CCC(C)(O)CC2)cc1F [Example 34, (S)-4-cyclopropyl-3-(2-(((S)-1-(2-fluoro-4-((4-hydroxy-4-methylpiperidin-1-yl)methyl)phenyl)ethyl)amino)pyrimidin-4-yl)-4-methyloxazolidin-2-one] | 0.0418 to 0.0531 µM | 0.192 µM
21 | C[C@H](Nc1nccc(N2C(=O)OC[C@]2(C)C2CC2)n1)c1ccc(CN2CCC(N)CC2)c(F)c1 [Example 41, (S)-3-(2-(((S)-1-(4-((4-aminopiperidin-1-yl)methyl)-3-fluorophenyl)ethyl)amino)pyrimidin-4-yl)-4-cyclopropyl-4-methyloxazolidin-2-one] | 0.194 to 0.473 µM | 0.376 µM
22 | C[C@H](Nc1ncc(F)c(N2C(=O)OCC2(C)C2CC2)n1)c1ccc(CN2CCC(C)(N)CC2)c(F)c1 (single isomer, unassigned) [Example 60] | 0.584 µM | 1.52 µM
23 | CC(Nc1nccc(N2C(=O)OC[C@]2(C)C2CC2)n1)c1nc(-c2ccc(Cl)c(OC(F)(F)F)c2)no1 (single isomer, unassigned) [Example 64] | 0.0103 to 0.0424 µM | 0.0252 µM
24 | Cc1cc(N2C(=O)OC[C@@H]2C2CC2)nc(N[C@@H](C)c2cn(-c3ccc(Cl)cc3)cn2)n1 [Example 7, (S)-3-(2-(((S)-1-(1-(4-chlorophenyl)-1H-imidazol-4-yl)ethyl)amino)-6-methylpyrimidin-4-yl)-4-cyclopropyloxazolidin-2-one] | 0.0174 µM | 0.00845 µM
25 | Cc1cc(N2C(=O)OC[C@@H]2C2CC2)nc(N[C@@H](C)c2cc(-c3ccc(Cl)cc3)on2)n1 [Example 10, (S)-3-(2-(((S)-1-(5-(4-chlorophenyl)isoxazol-3-yl)ethyl)amino)-6-methylpyrimidin-4-yl)-4-cyclopropyloxazolidin-2-one] | 0.0716 µM | 0.0228 µM
26 | Cc1cc(-c2cnc(C(C)Nc3nccc(N4C(=O)OC[C@]4(C)C4CC4)n3)nc2)ccc1F (single isomer, unassigned) [Example 54] | – | > 5 µM
27 | C[C@H](Nc1nccc(N2C(=O)OC[C@]2(C)C2CC2)n1)c1ccc(CN2CCC(N(C)C)CC2)c(F)c1 [Example 30, (S)-4-cyclopropyl-3-(2-(((S)-1-(4-((4-(dimethylamino)piperidin-1-yl)methyl)-3-fluorophenyl)ethyl)amino)pyrimidin-4-yl)-4-methyloxazolidin-2-one] | 0.122 to 0.172 µM | 0.211 to 0.271 µM
28 | C[C@H](Nc1nccc(N2C(=O)OC[C@]2(C)C2CC2)n1)c1ccc(CN2CCC(C)(N(C)C)CC2)c(F)c1 [Example 37, (S)-4-cyclopropyl-3-(2-(((S)-1-(4-((4-(dimethylamino)-4-methylpiperidin-1-yl)methyl)-3-fluorophenyl)ethyl)amino)pyrimidin-4-yl)-4-methyloxazolidin-2-one] | – | 0.0286 µM
29 | C[C@H](Nc1nccc(N2C(=O)OC[C@]2(C)C2CC2)n1)c1ccc(CN2CCC(C)(O)CC2)c(F)c1 [Example 31, (S)-4-cyclopropyl-3-(2-(((S)-1-(3-fluoro-4-((4-hydroxy-4-methylpiperidin-1-yl)methyl)phenyl)ethyl)amino)pyrimidin-4-yl)-4-methyloxazolidin-2-one] | – | 0.267 µM
30 | CC(Nc1nccc(N2C(=O)OC[C@@]2(C)C2CC2)n1)c1nc(-c2ccc(Cl)cc2)no1 (single isomer, unassigned) [Example 51] | – | 3.16 to 3.26 µM
31 | C[C@H](Nc1nc(Cl)cc(N2C(=O)OC[C@@H]2C2CC2)n1)c1nc(-c2ccc(Cl)cc2)no1 [Example 3, (S)-3-(6-chloro-2-((S)-1-(3-(4-chlorophenyl)-1,2,4-oxadiazol-5-yl)ethylamino)pyrimidin-4-yl)-4-cyclopropyloxazolidin-2-one] | 0.0269 µM | < 0.0229 µM
32 | CC(Nc1nccc(N2C(=O)OC[C@@]2(C)C2CC2)n1)c1nc(-c2ccc(Cl)c(OC(F)(F)F)c2)no1 (single isomer, unassigned) [Example 66] | 0.0343 to 0.0725 µM | 0.085 µM
33 | CC(Nc1nccc(N2C(=O)OC[C@]2(C)C2CC2)n1)c1nc(-c2ccc(Cl)cc2)no1 (single isomer, unassigned) [Example 49] | – | 2.52 µM
